Data as given in US7875602B2 (priority 2005, dated 2011).
Counter-ions that a name gives are not always drawn.

Experiments:
[1] = test system: PC-3: human prostate cancer cell line; type: cell-based; conditions: for IC50: Homo sapiens, 72 h, read-out: IC50 (nM) PC-3
[2] = test system: PC-3 human prostate cancer cells; assay: In vitro chemoradiosensitization, cell colony count; type: cell-based; conditions: for radiosensitivity of the cancer cell after prior exposure: 5 nM, 2 h exposure before X-rays; for Survival (%): Radiation + compound at 5 nM, 2 h drug exposure
Description: (§1) Chemoradiosensitizing effects of compound 13, compound 10, and compound 20 on human cancer cells were evaluated at a dose of 5 nM. PC-3 human prostate cancer cells were plated on petri dishes in triplicates were allowed to attach. After irradiation, cells were rinsed with HBSS (Hank's balanced salt solution), and covered with fresh media. Cells were cultured for 8-9 days in a 37° C. incubator. The resulting cell colonies were stained and counted. […] Other compounds of this invention can similarly be evaluated in accordance with this method.

[3] = test system: DMS-14 small lung cancer cells; assay: as above; type: cell-based, human; conditions: for Survival (%): Radiation + compound at 5 nM, 2 h drug exposure
Description: as §1, with “13” for “13, compound 10, and compound 20”, “DMS-14 small lung” for “PC-3 human prostate”

[4] = test system: PC-3 human prostate cancer cells; assay: Chemotherapeutic activity, cell colony count after 24 hr drug exposure; type: cell-based; conditions: 24 hr exposure
Description: (§2) Chemotherapeutic effects of compound 13 on human prostate cancer cells (PC-3 and DU-145) were evaluated at dose concentrations between 0 and 10 nM. Cells plated on Petri dishes in triplicates were allowed to attach, then cells were subjected to 24 hr drug exposure at 37° C. The cells were then rinsed with HBSS ((Hank's balanced salt solution) and covered with fresh media. Cells were cultured for 8-9 days in a 37° C. incubator. The resulting cell colonies were stained and counted. Results are presented in Table 4.

[5] = test system: DU-145 human prostate cancer cells; assay: as above; type: cell-based; conditions: 24 hr exposure
Description: as §2

[6] = Acute toxicity, MTD40 (maximum tolerated dose at day 40); type: in vivo, C3H/HeN mice; conditions: i.p. injection, mice checked daily for 45 days; values only in FIG. 3
Description: Drugs were dissolved in cremophor:alcohol (1:1) and diluted in saline to a 5% cremophor, 5% alcohol, 90% saline for i.p. injection.
Acute toxicities of a compound of this invention, compound 13, topotecan, CPT and cisplatin were evaluated on C3H/HeN mice (female, 6-8 week old, body weight 18-20 g). The MTD40 (maximum tolerated dose at day 40) values were determined. In the consecutive type studies, 6 mice were dosed at moderate doses of 10, 70, or 106.98, or 141.47, or 187.1 mg/kg. If no severe and irreversible toxicity (euthanasia is required) occurred at these doses, additional 6 animals were initiated at a dose which is 1.3225-1.5283 times higher than the previous non-toxic doses. Sequential dosages (261.94, or 366.72, or 500 mg/kg) were increased until severe and irreversible toxicity (whereby euthanasia is required) occurs. […] The result of this exercise was two dosages, one apparently nonlethal and the other lethal if severe and irreversible toxicity occurred and euthanasia was required. Six mice were dosed at each dosage. If no severe and irreversible toxicity occurred at the lower dosage and at least one with severe and irreversible toxicity at the higher dose, then the lower dose was considered to the MTD. […] Drug toxicity was evaluated on mice, checked daily for 45 days. […] Other compounds of this invention can similarly be evaluated in accordance with this method.

[7] = test system: MTG-B mouse mammary adenocarcinoma tumors; assay: In vivo chemoradiosensitization in tumor-bearing mice; set-up: species or system C3H/HeN mice; conditions: single i.p. injection at MTD
Description: To determine whether the pronounced effects of compound 13 in tissue culture could be duplicated in solid tumors, in vivo chemoradiosensitization studies were performed on C3H/HeN mice bearing MTG-B mouse mammary adenocarcinoma tumors. Prior to treatment, the tumor grew exponentially following implantation into the flanks of the mice and reached a diameter of 8 mm (268.08 cu. mm) by day 7 to 10. The mice were injected i.p. with compound 13 at MTD using a single injection and then irradiated with a radiation dose of 22 Gy 24 h after the injection. Control groups of mice bearing 8 mm diameter tumors were treated with vehicle alone, or radiation alone, or drug alone. After treatment, tumor sizes were measured by caliper every day. Daily measurement of the tumor diameters (d1, d2) in two orthogonal directions were used to calculate the tumor volume (tumor volume=π/6{(d1+d2)/2}^3) using the approximation that the tumors were spherical (results shown in FIG. 1). The values of time (days) required to grow the tumor to twice their initial size after various treatments were calculated as tumor doubling time (TDT) (±SE) for evaluating the treatment effects. Survival times and curative effects after treatment were also be observed and recorded. Other compounds of this invention can similarly be evaluated in accordance with this method.

[8] = compound plus radiation, 22 Gy 24 h after the injection

SMILES	melting point	radiosensitivity of the cancer cell after prior exposure [2]	Survival (%) ([2]; X-rays 0 Gy)	Survival (%) ([2]; X-rays 1 Gy)	Survival (%) ([2]; X-rays 2 Gy)	Survival (%) ([2]; X-rays 4 Gy)	IC50 [1] [nM]	other results
CC[C@@]1(O)C(=O)OCc2c1cc1n(c2=O)Cc2cc3c(CN(C)C)c(O)ccc3nc2-1 [Topotecan, (20S)-9-dimethylaminomethyl-10-hydroxy CPT, reference compound]								IC50 (nM) PC-3 ([1]; 72 hours drug incubation, 50% inhibition of colony formation): no effect
CC[C@@]1(OC(=O)[C@@H](C)ON=C2c3cc([N+](=O)[O-])cc([N+](=O)[O-])c3-c3c2cc([N+](=O)[O-])cc3[N+](=O)[O-])C(=O)OCc2c1cc1n(c2=O)Cc2cc3c(CN(C)C)c(O)ccc3nc2-1 (as salt: hydrochloride) [Compound 10]	210 to 213 °C (dec.)							
CC[C@@]1(OC(=O)[C@@H](C)ON=C2c3cc([N+](=O)[O-])cc([N+](=O)[O-])c3-c3c2cc([N+](=O)[O-])cc3[N+](=O)[O-])C(=O)OCc2c1cc1n(c2=O)Cc2cc3c(CN(C)C)c(O)ccc3nc2-1 [Compound 10]		significantly increased the radiosensitivity	100	90	66	21		
CC[C@@]1(OC(=O)CON=C2c3cc([N+](=O)[O-])cc([N+](=O)[O-])c3-c3c2cc([N+](=O)[O-])cc3[N+](=O)[O-])C(=O)OCc2c1cc1n(c2=O)Cc2cc3c(CN(C)C)c(O)ccc3nc2-1 (as salt: hydrochloride) [Compound 16]	210 to 215 °C (dec.)							
CC[C@@]1(OC(=O)[C@@H](C)ON=C2c3cc([N+](=O)[O-])cc([N+](=O)[O-])c3-c3c2cc([N+](=O)[O-])cc3[N+](=O)[O-])C(=O)OCc2c1cc1n(c2=O)Cc2cc3ccccc3nc2-1 [Compound 13]		significantly increased the radiosensitivity	100	83	60	22	5	radiosensitivity of the cancer cell after prior exposure ([3]; 5 nM, 2 h exposure before X-rays): significantly increased the radiosensitivity; Survival (%) ([3]; X-rays 0 Gy): 100%; Survival (%) ([3]; X-rays 2 Gy): 44%; Survival (%) ([3]; X-rays 4 Gy): 23%; Survival (%) ([3]; X-rays 8 Gy): 3%; PC-3 Cells % Survival ([4]; drug conc. 1 nM): 98%; PC-3 Cells % Survival ([4]; drug conc. 5 nM): 52%; PC-3 Cells % Survival ([4]; drug conc. 10 nM): 10%; DU-145 Cells % Survival ([5]; drug conc. 1 nM): 82%; DU-145 Cells % Survival ([5]; drug conc. 5 nM): 43%; DU-145 Cells % Survival ([5]; drug conc. 10 nM): 5%; toxicity compared with camptothecin and topotecan [6]: Decreased Toxicity; Survival ([7]; compound alone): 24 days; TDT (days), tumor doubling time ([7]; compound alone): 12 days; Survival [7, 8]: 90 days; TDT (days), tumor doubling time [7, 8]: 33 days
CC[C@@]1(OC(=O)[C@H](C)ON=C2c3cc([N+](=O)[O-])cc([N+](=O)[O-])c3-c3c2cc([N+](=O)[O-])cc3[N+](=O)[O-])C(=O)OCc2c1cc1n(c2=O)Cc2cc3ccccc3nc2-1 [Compound 17]							6	
CC[C@@]1(OC(=O)[C@@H](C)ON=C2c3cc([N+](=O)[O-])cc([N+](=O)[O-])c3-c3c2cc([N+](=O)[O-])cc3[N+](=O)[O-])C(=O)OCc2c1cc1n(c2=O)Cc2cc3cc(O)ccc3nc2-1 [Compound 20]	210 to 215 °C (dec.)	significantly increased the radiosensitivity	100	82	65	22	6	
